In patent US8586300B2, “Genetic polymorphisms and infertility” (The University of North Carolina at Chapel Hill, priority 2008, dated 2013):

Legend:
sperm [1] = test: Sperm concentration (hemocytometer) after betaine supplementation; assay type: in vivo, mouse
Procedure: (§1) FIGS. 17A-17D are bar graphs showing the results of betaine supplementation on sperm concentration, motility and mitochondrial function in CHDH+/+ (WT), CHDH+/−, and CHDH−/− (KO) mice. […] Spermatozoa concentration was determined by counting cells using a hemocytometer. Results are presented as mean±SEM, n=9-11 animals per genotype. […] Motility assays were performed by counting the number of progressively motile sperm per total number of sperm in 5 squares of a hemocytometer. The results are presented as the mean % motility±SEM, p<0.001, n=8-9 animals per genotype. […] Absorbance values were normalized to the number of sperm assayed. All assays were performed in duplicate. The value for each animal is the mean of 4 assays (2 cauda epididymii, each assayed in duplicate per animal). Results are presented as the mean±SEM, p<0.05, n=5 animals/group. […] The number of cells that fluoresced red was counted in 5 random fields of vision for each sample and results are expressed as a percent of the total cells in those fields. […]
Eight to 10 week old CHDH^+/+ and CHDH^−/− male mice were anesthetized with Halothane (Henry Schein, Inc.). […] Sperm concentration was determined by counting cells with a hemocytometer. Percent motility was determined by counting the number of progressively motile sperm per total number of sperm present using a hemocytometer. […]

sperm [2] = test: Sperm motility (progressively motile sperm, hemocytometer) after betaine supplementation via drinking water; assay type: in vivo, mouse
Procedure: (§2) FIGS. 17A-17D are bar graphs showing the results of betaine supplementation on sperm concentration, motility and mitochondrial function in CHDH+/+ (WT), CHDH+/−, and CHDH−/− (KO) mice. […] Spermatozoa concentration was determined by counting cells using a hemocytometer. Results are presented as mean±SEM, n=9-11 animals per genotype. […] Motility assays were performed by counting the number of progressively motile sperm per total number of sperm in 5 squares of a hemocytometer. The results are presented as the mean % motility±SEM, p<0.001, n=8-9 animals per genotype. […] Absorbance values were normalized to the number of sperm assayed. All assays were performed in duplicate. The value for each animal is the mean of 4 assays (2 cauda epididymii, each assayed in duplicate per animal). Results are presented as the mean±SEM, p<0.05, n=5 animals/group. […] The number of cells that fluoresced red was counted in 5 random fields of vision for each sample and results are expressed as a percent of the total cells in those fields. Results are presented as mean±SEM, p<0.001, n=5 animals/group.
Eight to 10 week old CHDH^+/+ and CHDH^−/− male mice were anesthetized with Halothane (Henry Schein, Inc.). A V-shaped incision was made beginning at the penis and extending out to the midline of the body. Testis and epididymis were excised from the animal and immediately placed in a 6-well tissue culture dish containing approximately 1 ml of M16 media (Sigma) in a well. All media, plates and tubes used were warmed to 37° C. prior to the dissection. Any plate or tube containing sperm, once isolated, was kept at 37° C. with 5% CO2 for the duration of the experiment. The cauda epididymis was separated from the other structures and then placed in a 24-well plate containing 300 μl of fresh M16 media in each well. The cauda epididymis was then cut several times and the dish was incubated at 37° C. with 5% CO2 for 15 minutes. Sperm concentration was determined by counting cells with a hemocytometer. Percent motility was determined by counting the number of progressively motile sperm per total number of sperm present using a hemocytometer. “Progressively motile sperm” refers to sperm that swim forward in a somewhat straight line. Sperm that were moving, but that were swimming in circles were classified as non-progressively motile.
To determine whether sperm motility can be restored through betaine supplementation, CHDH−/− mice were given drinking water supplemented to 2% betaine for 38 days.

spermatozoa mitochondria [3] = test: MTT assay of mitochondrial function in sperm after betaine supplementation; assay type: in vivo, mouse
Procedure: as §2
Sperm were isolated from the cauda epididymis as described above. An MTT (3-(4,5-dimethyl thiazol-2-yl)-2,5-diphenyl tetrazolium bromide) assay was conducted to measure mitochondrial function (Nasr-Esfahani, Aboutorabi et al. 2002) with the following modification: rather then visualizing positive MTT staining microscopically, MTT assays were conducted using a commercially available MIT assay kit (CellTiter 96 Non-radioactive Cell Proliferation Assay, Promega, Madison, Wis., United States of America) and cells were solubolized with the provided Solubolization/Stop Mix. 100 μL of isolated sperm were incubated in F10 media (Invitrogen Inc., Carlsbad, Calif., United States of America) in a 96-well plate with 15 μL of MTT solution at 37° C./5% CO2 for 2 hours. Following solubolization, the absorbance of each sample was read at a wavelength of 562 nm using a BIOTEK® plate reader (BioTek Instruments Inc., Winooski, Vt., United States of America). Absorbance was normalized to the number of sperm assayed.

spermatozoa mitochondria [4] = test: JC-1 staining, mitochondrial membrane potential in sperm after betaine supplementation; assay type: in vivo, mouse; conditions: JC-1 staining of sperm
Procedure: as §1, with “animal).” for “animal). Results are presented as the mean±SEM, p<0.05, n=5 animals/group.”
To detect changes in mitochondrial membrane polarization, JC-1 staining was performed on sperm harvested from cauda epididymis (see FIGS. 8-11 and 13). […] 20 μl of each stained sample was examined with a fluorescence microscope (Olympus BX50, Olympus America, Inc., Center Valley, Pa., United States of America) and large band epifluorescence filters. […] Five fields of vision were counted for each sample and results expressed as percent of total cells.

[5] = humans, dietary supplementation; cited from earlier work
[6] = system: isolated rat hepatic mitochondria; conditions: inhibition of electron transport chain Complex I (rotenone) or Complex II (malonate); cited from earlier work

Compound	effect on sperm concentration (sperm [1]; CHDH+/+, CHDH+/- or CHDH-/- mice, betaine supplementation)	number of sperm produced (sperm [1]; males of any CHDH genotype, betaine via drinking water for 42 days)	effect on motility of spermatozoa (sperm [2]; CHDH+/+ or CHDH+/- spermatozoa, betaine via drinking water for 42 days)	sperm motility (sperm [2]; CHDH+/- mice, betaine supplementation)	asthenospermic phenotype (sperm [2]; CHDH-/- males, betaine via drinking water for 42 days)	progressive sperm motility (sperm [2]; CHDH-/- mice, drinking water supplemented to 2% betaine for 38 days)	decrease of MTT conversion (spermatozoa mitochondria [3]; CHDH+/+ sperm, betaine supplementation)	MTT conversion compared to untreated CHDH+/+ sperm (spermatozoa mitochondria [3]; CHDH+/+ spermatozoa, betaine via drinking water for 42 days)	amount of MTT reduction (spermatozoa mitochondria [3]; CHDH+/- or CHDH-/- spermatozoa, betaine supplementation)	changes in mitochondrial function, as measured by MTT assay and JC-1 staining (spermatozoa mitochondria [3]; betaine via drinking water for 42 days, exception CHDH+/+ MTT conversion)	effect on inner mitochondrial membrane potential (ΔΨm) (spermatozoa mitochondria [4])	plasma tHcy concentrations [5]	choline-stimulated mitochondrial respiration [6]
C[N+](C)(C)CC(=O)O [betaine]	did not have any effect	did not alter	nor was there any effect	unaffected	improved, but not fully rescued	approximately 30%	67%	significantly decreased	did not change	No changes	no effect	effective in lowering	
O=C(O)CC(=O)O [malonate]													decreases
C=C(C)[C@H]1Cc2c(ccc3c2O[C@@H]2COc4cc(OC)c(OC)cc4[C@@H]2C3=O)O1 [rotenone]													decreases
